Data: US20250186558A1, “FORMULATIONS COMPRISING ACID-NEUTRALIZING POLYMER FOR ORAL ADMINISTRATION OF ACTIVE AGENTS” (Entera Bio Ltd., priority 2022, published 2025)

Key:
[1] = pH upon addition of test substance to 0.1 M HCl solution (pH 1.2), pH meter; assay type: physicochemical
Method: The solution pH was determined using an MP-103 pH-meter (MRC, Israel) equipped with ELC-10-00 electrode (MRC, Israel) or with a thin electrode HI1083 (HANNA instruments Inc.), shortly after dissolution and up to 26 hours later in order to ensure that the pH remained stable. The highest pH value obtained during the experimental time period was recorded in order to compare the acid-neutralizing capacity of each substance.
SNAC and the basic polymers sodium alginate, sodium carboxymethylcellulose in non-crosslinked (Na-CMC) and crosslinked (croscarmellose sodium, CCS) forms, and sodium starch glycolate (SSG) were dissolved in various volumes of 0.1 M HCl solution (pH 1.2) at concentrations of 1, 2, 4, 10, 20, 50, 100 and 150 mg/ml, and the solution pH was determined using an MP-103 pH-meter (MRC, Israel) equipped with ELC-10-00 electrode (MRC, Israel), as described in the Materials and Methods section hereinabove.
In order to obtain a beneficial rise in pH with a reduced loss of the active form of the absorption enhancer, the effect of various concentrations of different polymers containing carboxylate groups (sodium alginate, sodium starch glycolate, sodium carboxymethylcellulose, and croscarmellose sodium) on pH upon addition to a 0.1 M HCl solution (pH 1.2) was also evaluated. FIG. 3A presents pH values determined using an MP-103 pH-meter (MRC, Israel) equipped with ELC-10-00 electrode (MRC, Israel) and FIG. 3B presents pH values determined using an MP-103 pH-meter (MRC, Israel) equipped with a thin electrode HI1083 (HANNA instruments Inc.).

pepsin = experiment: Effect of pH on proteolysis of hPTH(1-34) by pepsin; assay type: in vitro ADME; conditions: 37° C., 3 minutes, media pH 2, 4, 5, 6, 7
Method: The effect of pH on peptide proteolysis by pepsin was determined by incubating 13.5 µg/ml human parathyroid hormone (1-34) (hPTH(1-34)) with 150 µg/ml pepsin, at various pH values, and determining the percentage of hPTH(1-34) which remained. The amount of hPTH(1-34) remaining upon addition to 150 µg/ml pepsin at 37° C. was determined in media with different pH values, followed by immediate (10 second) vortex and centrifugation for 3 minutes at 4° C., 4000 RCF. The following media were used: simulated gastric fluid (pH 2), prepared from 0.01 M HCl and NaCl; phthalate buffer (pH 4 or 5); and phosphate buffer (pH 6 or 7).

[2] = Teduglutide plasma concentration after oral mini-tablets with SNAC and SSG in rats; assay type: in vivo, male Sprague-Dawley (SD) rats; conditions: mini-tablets: 0.7 mg teduglutide (2.34 mg/Kg), 15 mg SNAC, 5.33 mg SSG; male SD rats, n=7
Method: A formulation was prepared with 0.7 mg teduglutide (2.34 mg/Kg), 15 mg SNAC, 0.2 mg stearate and 5.33 mg SSG. […] Afterwards, mini-tablets were prepared from the mixes using a 2 mm punch and die set at 1 ton/cm^2.
The study was conducted in 7 male Sprague-Dawley (SD) rats weighing about 299 grams (290-320 grams). Animals were deprived of food 12-15 hours prior to administration. Water supply was removed one hour before administration and returned one hour post-administration. The mini-tablets were administered by a flexible intragastric gavage with a tip adapted for solid dosage forms administration, without the aid of water.

O=C(O)CCCCCCCNC(=O)c1ccccc1O [SNAC, sodium 8-N-(2-hydroxybenzoyl)aminocaprylate]
pH 5 minutes after dissolution ([1]; 10 mg/ml SNAC added to HCl solution (pH 1.2)): about 1.5 | pH 5 minutes after dissolution ([1]; 20 mg/ml SNAC added to HCl solution (pH 1.2)): 6.5 | pH 5 minutes after dissolution ([1]; 100 mg/ml SNAC added to HCl solution (pH 1.2)): about 7.5

CC[C@H](C)[C@H](NC(=O)[C@H](CCC(=O)O)NC(=O)[C@H](CO)NC(=O)[C@@H](NC(=O)[C@@H](N)CO)C(C)C)C(=O)N[C@@H](CCC(N)=O)C(=O)N[C@@H](CC(C)C)C(=O)N[C@@H](CCSC)C(=O)N[C@@H](Cc1cnc[nH]1)C(=O)N[C@@H](CC(N)=O)C(=O)N[C@@H](CC(C)C)C(=O)NCC(=O)N[C@@H](CCCCN)C(=O)N[C@@H](Cc1cnc[nH]1)C(=O)N[C@@H](CC(C)C)C(=O)N[C@@H](CC(N)=O)C(=O)N[C@@H](CO)C(=O)N[C@@H](CCSC)C(=O)N[C@@H](CCC(=O)O)C(=O)N[C@@H](CCCN=C(N)N)C(=O)N[C@H](C(=O)N[C@@H](CCC(=O)O)C(=O)N[C@@H](Cc1c[nH]c2ccccc12)C(=O)N[C@@H](CC(C)C)C(=O)N[C@@H](CCCN=C(N)N)C(=O)N[C@@H](CCCCN)C(=O)N[C@@H](CCCCN)C(=O)N[C@@H](CC(C)C)C(=O)N[C@@H](CCC(N)=O)C(=O)N[C@@H](CC(=O)O)C(=O)N[C@H](C(=O)N[C@@H](Cc1cnc[nH]1)C(=O)N[C@@H](CC(N)=O)C(=O)N[C@@H](Cc1ccccc1)C(=O)O)C(C)C)C(C)C [hPTH(1-34)]
proteolysis of hPTH(1-34) by pepsin as a function of pH (pepsin): inhibited when the pH increased to about pH 6 or higher

CC[C@H](C)[C@H](NC(=O)[C@H](Cc1ccccc1)NC(=O)[C@H](CC(=O)O)NC(=O)[C@H](CCCNC(=N)N)NC(=O)[C@H](C)NC(=O)[C@H](C)NC(=O)[C@H](CC(C)C)NC(=O)[C@H](CC(N)=O)NC(=O)[C@H](CC(=O)O)NC(=O)[C@H](CC(C)C)NC(=O)[C@@H](NC(=O)[C@@H](NC(=O)[C@H](CC(N)=O)NC(=O)[C@H](CCSC)NC(=O)[C@H](CCC(=O)O)NC(=O)[C@H](CC(=O)O)NC(=O)[C@H](CO)NC(=O)[C@H](Cc1ccccc1)NC(=O)[C@H](CO)NC(=O)CNC(=O)[C@H](CC(=O)O)NC(=O)CNC(=O)[C@@H](N)Cc1c[nH]cn1)[C@@H](C)O)[C@@H](C)CC)C(=O)N[C@@H](CC(N)=O)C(=O)N[C@@H](Cc1c[nH]c2ccccc12)C(=O)N[C@@H](CC(C)C)C(=O)N[C@H](C(=O)N[C@@H](CCC(N)=O)C(=O)N[C@H](C(=O)N[C@@H](CCCCN)C(=O)N[C@H](C(=O)N[C@H](C(=O)N[C@@H](CC(=O)O)C(=O)O)[C@@H](C)O)[C@@H](C)CC)[C@@H](C)O)[C@@H](C)CC [teduglutide]
teduglutide plasma concentrations as a function of time after oral administration [2]: enable oral delivery of teduglutide
